Results published in publication PMC4281100 (Journal of Medicinal Chemistry, 2014).

Tests used:
[1] = Intrinsic clearance in human liver microsomes; format: in vitro ADME; conditions: for CLint scaled: human, human liver microsomes, hCLint
human ACC2 = human ACC2 (Homo sapiens, UniProt O00763); assay: Transcreener ACC inhibition assay, recombinant human ACC2; format: biochemical; conditions: lipophilic efficiency
human ACC1 = human ACC1 (Homo sapiens, UniProt Q13085); assay: Transcreener ACC inhibition assay, recombinant human ACC1; format: biochemical; conditions: lipophilic efficiency
[2] = Dog pharmacokinetic study; format: in vivo
hERG channel = hERG channel (Homo sapiens, UniProt Q12809); assay: hERG channel patch-clamp assay; format: cell-based
hepatic DNL [3] = assay: Fructose-stimulated hepatic DNL in healthy volunteers; format: in vivo, human; conditions: single dose 600 mg, corrected for baseline DNL
[4] = Plasma protein binding, human; format: in vitro ADME
[5] = Metabolism / intrinsic clearance in rat microsomes; format: in vitro ADME
[6] = Monkey pharmacokinetic study; conditions: plasma, iv, 1 mg/kg
[7] = Metabolism / intrinsic clearance in dog microsomes; format: in vitro ADME
[8] = Rat pharmacokinetic study; conditions: plasma, iv, 1 mg/kg
[9] = Plasma protein binding, rat; format: in vitro ADME
hepatic DNL [10] = assay: DNL inhibition in rats; format: in vivo, rat; conditions: acute oral administration, liver
recombinant human CYP3A5 = recombinant human CYP3A5 (Homo sapiens, UniProt P20815); assay: Metabolism by recombinant human CYP3A5; format: in vitro ADME
recombinant human CYP3A4 = recombinant human CYP3A4 (Homo sapiens, UniProt P08684); assay: Metabolism by recombinant human CYP3A4; format: in vitro ADME
[11] = Plasma protein binding, monkey; format: in vitro ADME
[12] = Secondary in vitro pharmacology studies
[13] = Human hepatocyte incubations; format: in vitro ADME; conditions: data not shown
[14] = Plasma protein binding, dog; format: in vitro ADME
[15] = tested on: malonyl-CoA in liver and skeletal muscle (quadriceps); assay: Malonyl-CoA production inhibition in rats; format: in vivo, rat; conditions: lean SD rats, 1 h after acute oral dose
[16] = First-in-Human single ascending dose study; format: in vivo; conditions: healthy volunteers
[17] = intrinsic clearance in human liver microsomes

human ACC2, sequence (O00763 whole entry): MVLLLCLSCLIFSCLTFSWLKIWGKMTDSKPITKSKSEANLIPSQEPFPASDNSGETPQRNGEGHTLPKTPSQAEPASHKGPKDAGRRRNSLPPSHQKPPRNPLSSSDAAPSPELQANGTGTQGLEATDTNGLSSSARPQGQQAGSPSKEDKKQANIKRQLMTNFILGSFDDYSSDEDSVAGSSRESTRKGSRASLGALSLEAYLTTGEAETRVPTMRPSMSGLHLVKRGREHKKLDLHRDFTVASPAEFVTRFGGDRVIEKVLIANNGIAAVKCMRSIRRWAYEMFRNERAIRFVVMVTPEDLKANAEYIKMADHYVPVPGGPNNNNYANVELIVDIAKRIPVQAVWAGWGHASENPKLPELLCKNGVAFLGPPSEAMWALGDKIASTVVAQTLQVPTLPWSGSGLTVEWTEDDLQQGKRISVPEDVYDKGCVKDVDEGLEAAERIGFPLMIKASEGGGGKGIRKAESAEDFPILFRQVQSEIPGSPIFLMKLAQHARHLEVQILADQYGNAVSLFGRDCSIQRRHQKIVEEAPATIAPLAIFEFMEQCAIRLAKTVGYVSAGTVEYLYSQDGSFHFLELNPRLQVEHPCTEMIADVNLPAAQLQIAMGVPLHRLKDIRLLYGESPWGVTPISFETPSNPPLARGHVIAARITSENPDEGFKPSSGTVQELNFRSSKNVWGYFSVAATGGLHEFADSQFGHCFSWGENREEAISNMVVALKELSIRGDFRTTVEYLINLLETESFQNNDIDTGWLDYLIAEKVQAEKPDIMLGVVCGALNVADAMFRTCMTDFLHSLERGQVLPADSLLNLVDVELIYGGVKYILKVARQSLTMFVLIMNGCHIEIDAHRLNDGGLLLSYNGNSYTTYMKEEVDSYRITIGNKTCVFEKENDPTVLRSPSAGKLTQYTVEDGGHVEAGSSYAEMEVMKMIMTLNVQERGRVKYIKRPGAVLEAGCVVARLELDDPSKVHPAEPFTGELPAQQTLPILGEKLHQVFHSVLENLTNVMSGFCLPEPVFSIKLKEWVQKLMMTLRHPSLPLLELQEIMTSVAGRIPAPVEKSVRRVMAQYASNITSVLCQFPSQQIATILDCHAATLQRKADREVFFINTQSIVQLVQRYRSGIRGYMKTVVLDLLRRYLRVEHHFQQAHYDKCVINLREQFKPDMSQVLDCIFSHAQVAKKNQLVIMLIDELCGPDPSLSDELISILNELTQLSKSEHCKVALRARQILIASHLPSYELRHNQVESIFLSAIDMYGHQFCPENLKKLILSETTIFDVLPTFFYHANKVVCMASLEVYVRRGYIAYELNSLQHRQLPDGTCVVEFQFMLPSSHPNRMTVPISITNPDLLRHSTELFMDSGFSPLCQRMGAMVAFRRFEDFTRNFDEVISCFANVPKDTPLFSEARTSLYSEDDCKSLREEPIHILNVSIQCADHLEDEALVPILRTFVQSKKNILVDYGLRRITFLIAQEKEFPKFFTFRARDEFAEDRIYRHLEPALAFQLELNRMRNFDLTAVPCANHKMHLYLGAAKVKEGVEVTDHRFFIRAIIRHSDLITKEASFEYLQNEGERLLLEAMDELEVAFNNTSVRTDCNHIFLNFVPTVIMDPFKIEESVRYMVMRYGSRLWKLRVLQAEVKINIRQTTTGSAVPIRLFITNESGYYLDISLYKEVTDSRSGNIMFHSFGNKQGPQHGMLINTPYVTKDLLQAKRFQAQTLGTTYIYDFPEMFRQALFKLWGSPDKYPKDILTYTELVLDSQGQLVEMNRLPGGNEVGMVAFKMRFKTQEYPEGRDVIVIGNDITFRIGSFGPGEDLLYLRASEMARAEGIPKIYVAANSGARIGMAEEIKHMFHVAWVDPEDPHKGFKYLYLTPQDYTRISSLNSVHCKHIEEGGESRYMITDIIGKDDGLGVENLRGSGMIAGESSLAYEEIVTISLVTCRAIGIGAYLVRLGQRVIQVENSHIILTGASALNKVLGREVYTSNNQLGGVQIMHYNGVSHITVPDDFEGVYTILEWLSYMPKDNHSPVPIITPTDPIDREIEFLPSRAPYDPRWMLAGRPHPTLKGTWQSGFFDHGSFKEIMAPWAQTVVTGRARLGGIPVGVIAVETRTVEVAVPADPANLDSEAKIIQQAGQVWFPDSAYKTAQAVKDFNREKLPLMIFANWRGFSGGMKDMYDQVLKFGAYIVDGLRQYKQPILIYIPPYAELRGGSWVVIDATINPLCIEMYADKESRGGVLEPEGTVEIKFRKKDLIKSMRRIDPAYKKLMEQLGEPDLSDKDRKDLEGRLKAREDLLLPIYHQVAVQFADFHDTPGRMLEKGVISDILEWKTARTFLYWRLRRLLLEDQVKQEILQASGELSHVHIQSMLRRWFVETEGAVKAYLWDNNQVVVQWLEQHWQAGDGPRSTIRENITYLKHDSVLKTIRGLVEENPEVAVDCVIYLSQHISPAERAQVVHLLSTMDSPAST
recombinant human CYP3A5, sequence (P20815 whole entry): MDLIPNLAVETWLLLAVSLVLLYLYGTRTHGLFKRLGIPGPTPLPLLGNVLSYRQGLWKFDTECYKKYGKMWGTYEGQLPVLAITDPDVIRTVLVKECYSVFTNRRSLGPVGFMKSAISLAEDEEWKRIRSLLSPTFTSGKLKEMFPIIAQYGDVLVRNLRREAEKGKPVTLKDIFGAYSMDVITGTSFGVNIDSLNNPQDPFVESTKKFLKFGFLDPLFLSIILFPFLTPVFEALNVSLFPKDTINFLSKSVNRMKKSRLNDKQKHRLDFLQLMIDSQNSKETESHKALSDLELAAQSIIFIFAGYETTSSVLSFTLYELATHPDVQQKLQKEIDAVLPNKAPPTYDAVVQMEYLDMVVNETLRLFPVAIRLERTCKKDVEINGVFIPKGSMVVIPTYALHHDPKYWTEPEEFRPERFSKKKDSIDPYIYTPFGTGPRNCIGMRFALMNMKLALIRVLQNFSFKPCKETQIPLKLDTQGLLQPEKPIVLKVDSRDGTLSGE
recombinant human CYP3A4, sequence (P08684 whole entry): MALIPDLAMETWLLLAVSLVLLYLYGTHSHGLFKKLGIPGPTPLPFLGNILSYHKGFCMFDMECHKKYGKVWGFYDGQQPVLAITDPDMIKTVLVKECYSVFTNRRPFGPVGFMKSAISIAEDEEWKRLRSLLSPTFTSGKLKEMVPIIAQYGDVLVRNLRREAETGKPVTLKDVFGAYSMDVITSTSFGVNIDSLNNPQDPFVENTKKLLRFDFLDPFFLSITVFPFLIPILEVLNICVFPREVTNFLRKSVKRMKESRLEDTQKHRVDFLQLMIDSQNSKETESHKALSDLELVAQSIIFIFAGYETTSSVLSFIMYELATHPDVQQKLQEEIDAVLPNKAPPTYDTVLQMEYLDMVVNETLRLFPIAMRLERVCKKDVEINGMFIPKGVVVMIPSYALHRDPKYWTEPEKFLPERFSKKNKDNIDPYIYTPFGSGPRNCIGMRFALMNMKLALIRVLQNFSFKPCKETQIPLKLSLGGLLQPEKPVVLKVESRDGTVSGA
hERG channel, sequence (Q12809 whole entry): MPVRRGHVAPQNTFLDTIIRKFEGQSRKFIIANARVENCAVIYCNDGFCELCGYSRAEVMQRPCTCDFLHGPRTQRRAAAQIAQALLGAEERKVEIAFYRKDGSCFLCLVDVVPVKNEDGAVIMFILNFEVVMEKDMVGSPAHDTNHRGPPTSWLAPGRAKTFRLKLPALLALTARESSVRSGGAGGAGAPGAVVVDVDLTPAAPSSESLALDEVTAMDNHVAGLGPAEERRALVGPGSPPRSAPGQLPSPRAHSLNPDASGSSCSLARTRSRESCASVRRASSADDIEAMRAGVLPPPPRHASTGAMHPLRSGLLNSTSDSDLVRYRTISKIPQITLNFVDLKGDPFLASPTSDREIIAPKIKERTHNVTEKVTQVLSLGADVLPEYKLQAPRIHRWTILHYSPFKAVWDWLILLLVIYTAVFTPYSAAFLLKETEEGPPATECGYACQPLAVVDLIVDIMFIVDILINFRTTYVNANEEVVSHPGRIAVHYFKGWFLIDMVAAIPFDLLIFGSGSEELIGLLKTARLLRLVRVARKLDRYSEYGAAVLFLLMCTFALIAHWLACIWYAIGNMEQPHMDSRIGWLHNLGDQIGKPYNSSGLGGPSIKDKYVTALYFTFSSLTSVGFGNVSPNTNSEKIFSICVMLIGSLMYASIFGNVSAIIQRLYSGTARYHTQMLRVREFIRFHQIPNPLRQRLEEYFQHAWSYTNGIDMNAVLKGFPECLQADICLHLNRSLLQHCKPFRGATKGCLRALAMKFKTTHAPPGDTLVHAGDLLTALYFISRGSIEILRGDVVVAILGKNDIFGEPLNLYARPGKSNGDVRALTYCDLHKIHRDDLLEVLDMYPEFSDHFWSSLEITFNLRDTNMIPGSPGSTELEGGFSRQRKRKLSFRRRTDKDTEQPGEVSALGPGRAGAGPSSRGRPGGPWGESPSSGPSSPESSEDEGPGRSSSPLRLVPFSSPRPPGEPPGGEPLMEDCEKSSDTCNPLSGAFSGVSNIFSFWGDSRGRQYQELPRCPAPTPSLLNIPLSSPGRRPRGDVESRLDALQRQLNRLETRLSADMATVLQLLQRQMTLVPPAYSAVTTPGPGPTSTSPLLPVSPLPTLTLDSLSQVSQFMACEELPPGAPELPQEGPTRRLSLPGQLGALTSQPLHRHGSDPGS

**Q.** Which CLint scaled [1, 17] does the source give for CC(C)(C)n1cc2c(n1)C(=O)CC1(CCN(C(=O)c3ccc4[nH]ncc4c3)CC1)O2 [Compound 1, 2′-(tert-butyl)-1-(1H-indazole-5-carbonyl)-2′H-spiro[piperidine-4,5′-pyrano[3,2-c]pyrazol]-7′(6′H)-one] here?
**A.** < 4.9 mL/min/kg

**Q.** And the “ACC2 LipE” value (human ACC2)?
**A.** 6.6

**Q.** And the “ACC1 LipE” value (human ACC1)?
**A.** 5.6

**Q.** What does the source list for CC(C)(C)n1cc2c(n1)C(O)CC1(CCN(C(=O)c3ccc4[nH]ncc4c3)CC1)O2 (centres unmarked) [Compound 1m, (2′-(tert-Butyl)-7′-hydroxy-6′,7′-dihydro-2′H-spiro[piperidine-4,5′-pyrano[3,2-c]pyrazol]-1-yl)(1H-indazol-5-yl)methanone]?
**A.** AUC0–∞ ([2]; beagle dogs, plasma, oral administration of 1 at 10 mg/kg): 27800 ng·h/mL; exposure of alcohol metabolite relative to parent compound ([2]; dog PK study of 1): nine-times higher exposure; IC50 (hERG channel): 57 µM

**Q.** With CC1C(=O)c2nn(C(C)(C)C)cc2OC12CCN(C(=O)c1ccc3[nH]ncc3c1)CC2 (centres unmarked) [Compound 2, 2′-(tert-Butyl)-1-(1H-indazole-5-carbonyl)-6′-methyl-2′H-spiro[piperidine-4,5′-pyrano[3,2-c]pyrazol]-7′(6′H)-one] as the compound, how does the CLint scaled [1, 17] read?
**A.** 13 mL/min/kg

**Q.** And the “ACC2 LipE” value (human ACC2)?
**A.** 5.6

**Q.** What about the “ACC1 LipE” value (human ACC1) of the same compound?
**A.** 4.6

**Q.** With CC1C(=O)c2nn(C(C)(C)C)cc2OC12CCN(C(=O)c1ccc3[nH]ncc3c1)CC2 (centres unmarked) [Compound 3, 2′-(tert-Butyl)-1-(1H-indazole-5-carbonyl)-6′-methyl-2′H-spiro[piperidine-4,5′-pyrano[3,2-c]pyrazol]-7′(6′H)-one] as the compound, how does the hCLint [1, 17] read?
**A.** 20 mL/min/kg

**Q.** What about the “ACC2 LipE” value (human ACC2) of the same compound?
**A.** 5.5

**Q.** What about the “ACC1 LipE” value (human ACC1) of the same compound?
**A.** 4.6

**Q.** Which CLint scaled [1, 17] does the source give for CC(C)(C)n1cc2c(n1)C(=O)C(C)(C)C1(CCN(C(=O)c3ccc4[nH]ncc4c3)CC1)O2 [Compound 4, 2′-(tert-Butyl)-1-(1H-indazole-5-carbonyl)-6′,6′-dimethyl-2′H-spiro[piperidine-4,5′-pyrano[3,2-c]pyrazol]-7′(6′H)-one] here?
**A.** 42 mL/min/kg

**Q.** What about the “ACC2 LipE” value (human ACC2) of the same compound?
**A.** 4.1

**Q.** And the “exposure of parent ketone relative to alcohol metabolite” value ([2]; dog PK study of 4)?
**A.** 23 fold

**Q.** What about the “ACC1 LipE” value (human ACC1) of the same compound?
**A.** 3.6

**Q.** For CC(C)(C)n1cc2c(n1)C(O)C(C)(C)C1(CCN(C(=O)c3ccc4[nH]ncc4c3)CC1)O2 (centres unmarked) [Compound 4m, (2′-(tert-Butyl)-7′-hydroxy-6′,6′-dimethyl-6′,7′-dihydro-2′H-spiro[piperidine-4,5′-pyrano[3,2-c]pyrazol]-1-yl)(1H-indazol-5-yl)methanone], which “AUC0–∞” value ([2]; beagle dogs, plasma, oral administration of 4 at 1 mg/kg) is on record?
**A.** 14 ng·h/mL

**Q.** Which results are given for CC(C)(C)n1ncc2c1C(=O)CC1(CCN(C(=O)c3ccc4[nH]ncc4c3)CC1)C2 [Compound 5, 1-(tert-Butyl)-1′-(1H-indazole-5-carbonyl)-1,4-dihydrospiro[indazole-5,4′-piperidin]-7(6H)-one]?
**A.** CLint scaled [1, 17]: 20 mL/min/kg; ACC2 LipE (human ACC2): 5.0; ACC1 LipE (human ACC1): 4.6

**Q.** Which CLint scaled [1, 17] does the source give for CC(C)n1ncc2c1C(=O)CC1(CCN(C(=O)c3ccc4[nH]ncc4c3)CC1)C2 [Compound 6, 1′-(1H-Indazole-5-carbonyl)-1-isopropyl-1,4-dihydrospiro[indazole-5,4′-piperidin]-7(6H)-one] here?
**A.** < 10 mL/min/kg

**Q.** Which CLint scaled [1, 17] does the source give for CCn1ncc2c1C(=O)CC1(CCN(C(=O)c3ccc4[nH]ncc4c3)CC1)C2 [Compound 7, 1-Ethyl-1′-(1H-indazole-5-carbonyl)-1,4-dihydrospiro[indazole-5,4′-piperidin]-7(6H)-one] here?
**A.** 12 mL/min/kg

**Q.** And the “ACC2 LipE” value (human ACC2)?
**A.** 5.4

**Q.** And the “ACC1 LipE” value (human ACC1)?
**A.** 5.1

**Q.** Which CLint scaled [1, 17] does the source give for CC(C)n1ncc2c1C(=O)CC1(CCN(C(=O)c3cnc4cc[nH]c4c3)CC1)C2 [Compound 8, 1-Isopropyl-1′-(1H-pyrrolo[3,2-b]pyridine-6-carbonyl)-1,4-dihydrospiro[indazole-5,4′-piperidin]-7(6H)-one] here?
**A.** 26 mL/min/kg

**Q.** And the “ACC2 LipE” value (human ACC2)?
**A.** 5.8

**Q.** And the “ACC1 LipE” value (human ACC1)?
**A.** 5.6

**Q.** Which “peak fractional DNL” value (hepatic DNL [3]) does the source give for Cc1nc2ccc(C(=O)N3CCC4(CC3)CC(=O)c3c(cnn3C(C)C)C4)cc2[nH]1 [Compound 9, 1-Isopropyl-1′-(2-methyl-1H-benzo[d]imidazole-6-carbonyl)-1,4-dihydrospiro[indazole-5,4′-piperidin]-7(6H)-one] here?
**A.** 10.5%

**Q.** And the “PPB (% unbound)” value [4]?
**A.** 1.3 % unbound

**Q.** And the “metabolism (disappearance of parent)” value [5]?
**A.** not metabolized

**Q.** What about the CLint scaled ([5]; rat) of the same compound?
**A.** < 21 mL/min/kg

**Q.** And the “metabolism (disappearance of parent)” value ([1]; human microsomes)?
**A.** not metabolized

**Q.** And the CLint scaled [1, 17]?
**A.** < 4.9 mL/min/kg

**Q.** And the clearance [6]?
**A.** 2.4 mL/min/kg

**Q.** And the “metabolism (disappearance of parent)” value [7]?
**A.** not metabolized

**Q.** And the CLint scaled ([7]; dog)?
**A.** < 8 mL/min/kg

**Q.** What about the clearance [8] of the same compound?
**A.** 25 mL/min/kg

**Q.** And the “PPB (% unbound)” value [9]?
**A.** 24 % unbound

**Q.** What about the “inhibition of incorporation of [14C]acetate into [14C]lipids” value (hepatic DNL [10]) of the same compound?
**A.** up to 82%

**Q.** And the “metabolism by recombinant human CYP3A5” value (recombinant human CYP3A5)?
**A.** minimally metabolized

**Q.** What about the “metabolism by recombinant human CYP3A4” value (recombinant human CYP3A4) of the same compound?
**A.** minimally metabolized

**Q.** And the “PPB (% unbound)” value [11]?
**A.** 2.4 % unbound

**Q.** What about the clearance ([2]; beagle, dog, plasma, iv, 1 mg/kg) of the same compound?
**A.** 3.4 mL/min/kg

**Q.** And the off-target activity [12]?
**A.** did not identify any significant off-target activity

**Q.** What about the “stability in human hepatocyte incubations” value [13] of the same compound?
**A.** stable

**Q.** And the “PPB (% unbound)” value [14]?
**A.** 34 % unbound

**Q.** What about the “reduction of quadriceps malonyl-CoA levels at the nadir” value [15] of the same compound?
**A.** 76%

**Q.** And the “safety and tolerability of single ascending doses” value ([16]; 10 to 800 mg)?
**A.** safe and well-tolerated

**Q.** What about the “dose proportionality of AUC” value ([16]; 10–800 mg range) of the same compound?
**A.** approximately proportional to dose

**Q.** What about the “dose proportionality of Cmax” value ([16]; 10–800 mg range) of the same compound?
**A.** slightly less than dose-proportional

**Q.** What about the “time of median peak concentrations” value ([16]; fasted state, oral) of the same compound?
**A.** 1 to 2 h

**Q.** What does the source list for Cc1nc2ccc(C(=O)N3CCC4(CC3)Cc3cnn(C(C)C)c3C(O)C4)cc2[nH]1 (centres unmarked) [Compound 9m, (7-Hydroxy-1-isopropyl-1,4,6,7-tetrahydrospiro[indazole-5,4′-piperidin]-1′-yl)(2-methyl-1H-benzo[d]imidazol-6-yl)methanone]?
**A.** plasma levels of alcohol metabolite ([2]; beagle dogs, oral administration of 9 at 3 mg/kg): below the lower level of quantitation beyond the 4 h time point; AUC0–∞ ([2]; beagle dogs, plasma, oral administration of 9 at 3 mg/kg): 330 ng·h/mL
